Measurements reported in patent publication US5043450A, “8-alkoxyquinolonecarboxylic acid and salts thereof” (priority 1986, dated 1991).
Values after ≈ are worked out from the molar mass of the structure shown. Where two headings read alike, the source gives them in different places.

How the values were obtained:
Assay type in all cases: cell-based
[1] = tested on: Bacilus subtilis PCI 219; assay: Antibacterial spectra, MIC; conditions: Bacillus subtilis, PCI219
[2] = tested on: Staphylococcus aureus 209 P; assay: Antibacterial spectra, MIC
[3] = tested on: S. aureus IID 670 (Terajima); assay: Antibacterial spectra, MIC; conditions: Staphylococcus aureus, IID670
[4] = tested on: S. aureus Smith; assay: Antibacterial spectra, MIC; conditions: Staphylococcus aureus
[5] = tested on: S. epidermidis IID 866; assay: Antibacterial spectra, MIC; conditions: Staphylococcus epidermidis, IID866
[6] = tested on: E. coli ML 4707; assay: Antibacterial spectra, MIC; conditions: Escherichia coli, ML4707; 10^6 cells/ml; Gram -
Experimental: (§1) The antibacterial test was carried out according to the method designated by Japan Society of Chemotherapy.

[7] = tested on: E. faecalis IID 682; assay: Antibacterial spectra, MIC; conditions: Enterococcus faecalis, IID682; 10^6 cells/ml; Gram +
Experimental: as §1

[8] = tested on: Proteus vulgaris IFO 3167; assay: Antibacterial spectra, MIC; conditions: IFO3167, 10^6 cells/ml, Gram -
Experimental: as §1

[9] = tested on: Shigella sonnei IID 969; assay: Antibacterial spectra, MIC; conditions: IID969, 10^6 cells/ml, Gram -
Experimental: as §1

[10] = tested on: Streptococcus pyogenes (S-8); assay: Antibacterial spectra, MIC; conditions: 10^6 cells/ml, Gram +
Experimental: as §1

[11] = tested on: S. pyogenes IID 692; assay: Antibacterial spectra, MIC; conditions: Streptococcus pyogenes, IID692
[12] = tested on: S. pneumoniae IID 552; assay: Antibacterial spectra, MIC; conditions: Streptococcus pneumoniae, IID552
[13] = tested on: Escherichia coli NIHJ JC-2; assay: Antibacterial spectra, MIC; conditions: NIHJJC2
[14] = tested on: E. coli ATCC 10536; assay: Antibacterial spectra, MIC; conditions: Escherichia coli, ATCC10536
[15] = tested on: P. mirabilis IID 994; assay: Antibacterial spectra, MIC; conditions: Proteus mirabilis, IID994
[16] = tested on: Morganella morganii IID 602; assay: Antibacterial spectra, MIC; conditions: IID602
[17] = tested on: Klebsiella pneumoniae KY(GN)6445; assay: Antibacterial spectra, MIC
[18] = tested on: K. pneumoniae 1-220S; assay: Antibacterial spectra, MIC; conditions: Klebsiella pneumoniae, 1220S
[19] = tested on: Enterobacter cloacae IID 977; assay: Antibacterial spectra, MIC; conditions: IID977
[20] = tested on: Citrobacter freundii IID 976; assay: Antibacterial spectra, MIC
[21] = tested on: Serratia marcescens IID 618; assay: Antibacterial spectra, MIC; conditions: IID618
[22] = tested on: Salmonella enteritidis IID 604; assay: Antibacterial spectra, MIC; conditions: Salmonella enterica
[23] = tested on: Pseudomonas aeruginosa V-1; assay: Antibacterial spectra, MIC; conditions: V1
[24] = tested on: P. aeruginosa IFO 12689; assay: Antibacterial spectra, MIC; conditions: Pseudomonas aeruginosa, IFO12689; 10^6 cells/ml; Gram -; read-out: MIC
[25] = tested on: P. aeruginosa IID 1210; assay: Antibacterial spectra, MIC; conditions: Pseudomonas aeruginosa, IID1210; 10^6 cells/ml; Gram -; read-out: MIC
[26] = tested on: P. cepacia GIFU 518; assay: Antibacterial spectra, MIC; conditions: Burkholderia cepacia, GIFU518
[27] = tested on: P. maltophilia GIFU 2491; assay: Antibacterial spectra, MIC; conditions: Stenotrophomonas maltophilia, GIFU2491
[28] = tested on: Yersinia enterocolitica IID 981; assay: Antibacterial spectra, MIC; conditions: IID981
[29] = tested on: Acinetobacter anitratus IID 876; assay: Antibacterial spectra, MIC; conditions: Acinetobacter calcoaceticus, IID876
[30] = tested on: Alcaligenes faecalis 0114002; assay: Antibacterial spectra, MIC
[31] = tested on: Bacteroides fragilis GM 7000; assay: Antibacterial spectra, MIC
[32] = tested on: B. fragilis 0558; assay: Antibacterial spectra, MIC; conditions: Bacteroides fragilis
[33] = tested on: B. fragilis 25285; assay: Antibacterial spectra, MIC; conditions: Bacteroides fragilis
[34] = tested on: B. distasonis 8503; assay: Antibacterial spectra, MIC; conditions: Parabacteroides distasonis
[35] = tested on: B. thetaiotaomicron (0661); assay: Antibacterial spectra, MIC; conditions: Bacteroides thetaiotaomicron
[36] = tested on: B. vulgatus KYA 29327; assay: Antibacterial spectra, MIC; conditions: Phocaeicola vulgatus, KYA29327
[37] = tested on: Fusobacterium mortiferum 4249; assay: Antibacterial spectra, MIC
[38] = tested on: F. necrophorum S-45; assay: Antibacterial spectra, MIC; conditions: Fusobacterium necrophorum, S45
[39] = tested on: F. varium KYA 8501; assay: Antibacterial spectra, MIC; conditions: Fusobacterium varium, KYA8501; 10^6 cells/ml; Gram -; read-out: MIC
[40] = tested on: Eubacterium lentum GAI 5242; assay: Antibacterial spectra, MIC; conditions: Eggerthella lenta, GAI5242
[41] = tested on: Propionibacterium acens 11828; assay: Antibacterial spectra, MIC; conditions: 10^6 cells/ml, Gram +, read-out: MIC
[42] = tested on: Peptococcus magnus KY 017; assay: Antibacterial spectra, MIC; conditions: Finegoldia magna, KY017
[43] = tested on: C. perfringens KYA 13123; assay: microbe, parasite or virus in culture; conditions: Clostridium perfringens, KYA13123
[44] = tested on: C. ramosum; assay: Antibacterial spectra, MIC; conditions: Thomasclavelia ramosa
[45] = tested on: Peptostreptococcus anaerobius KYA 27337; assay: Antibacterial spectra, MIC; conditions: KYA27337
[46] = tested on: Pst. micros UPI 5464-1; assay: Antibacterial spectra, MIC; conditions: Parvimonas micra, UPI54641
[47] = tested on: Veillonella parvula KYA 10790; assay: Antibacterial spectra, MIC; conditions: KYA10790
[48] = 10^6 cells/ml, Gram -, read-out: MIC

How did the MIC [1] turn out when `CCNCC1CCN(c2c(F)cc3c(=O)c(C(=O)O)cn(C4CC4)c3c2OC)C1` (stereo not drawn) [Exp. 9, 1-cyclopropyl-7-(3-ethylaminomethyl-1-pyrrolidinyl)-6-fluoro-1,4-dihydro-8-methoxy-4-oxo-3-quinolinecarboxylic acid] was run?
Its MIC is 0.0063 mg/L (≈ 0.0156 µM).

And the MIC [2]?
The MIC was 0.0125 mg/L (≈ 0.031 µM).

And the MIC [3]?
The MIC was 0.0125 mg/L (≈ 0.031 µM).

And the MIC [4]?
The MIC was 0.0125 mg/L (≈ 0.031 µM).

And the MIC [5]?
The MIC was 0.025 mg/L (≈ 0.062 µM).

And the MIC [6]?
The MIC was 0.025 mg/L (≈ 0.062 µM).

And the MIC [7]?
Its MIC is 0.05 mg/L.

What about the MIC [8] of the same compound?
The MIC was 0.025 mg/L (≈ 0.062 µM).

What about the MIC [9] of the same compound?
Its MIC is 0.025 mg/L (≈ 0.062 µM).

And the MIC [10]?
Its MIC is 0.025 mg/L.

What about the MIC [11] of the same compound?
The MIC was 0.05 mg/L (≈ 0.124 µM).

And the MIC [12]?
The MIC was 0.025 mg/L (≈ 0.062 µM).

What about the MIC [13] of the same compound?
Its MIC is 0.0063 mg/L (≈ 0.0156 µM).

What about the MIC [14] of the same compound?
Its MIC is 0.025 mg/L (≈ 0.062 µM).

What about the MIC [15] of the same compound?
The MIC was 0.025 mg/L (≈ 0.062 µM).

What about the MIC [16] of the same compound?
The MIC was 0.2 mg/L (≈ 0.496 µM).

And the MIC [17]?
Its MIC is 0.05 mg/L (≈ 0.124 µM).

And the MIC [18]?
Its MIC is 0.1 mg/L (≈ 0.248 µM).

What about the MIC [19] of the same compound?
The MIC was 0.1 mg/L (≈ 0.248 µM).

And the MIC ([20]; IID976, 10^6 cells/ml, Gram -, read-out: MIC)?
The MIC was 0.055 mg/L (≈ 0.136 µM).

What about the MIC [21] of the same compound?
Its MIC is 0.1 mg/L (≈ 0.248 µM).

And the MIC [22]?
The MIC was 0.05 mg/L (≈ 0.124 µM).

And the MIC [23]?
The MIC was 0.39 mg/L (≈ 0.967 µM).

And the MIC [24]?
The MIC was 1.56 mg/L (≈ 3.87 µM).

And the MIC [25]?
The MIC was 6.25 mg/L (≈ 15.5 µM).

And the MIC [26]?
The MIC was 0.78 mg/L (≈ 1.93 µM).

And the MIC [27]?
The MIC was 0.2 mg/L (≈ 0.496 µM).

What about the MIC [28] of the same compound?
Its MIC is 0.1 mg/L (≈ 0.248 µM).

What about the MIC [29] of the same compound?
The MIC was 0.05 mg/L (≈ 0.124 µM).

What about the MIC [30] of the same compound?
Its MIC is 0.78 mg/L (≈ 1.93 µM).

What about the MIC ([31]; GM7000) of the same compound?
The MIC was 0.1 mg/L (≈ 0.248 µM).

What about the MIC [32] of the same compound?
The MIC was 0.1 mg/L (≈ 0.248 µM).

And the MIC [33]?
The MIC was 0.1 mg/L (≈ 0.248 µM).

What about the MIC [34] of the same compound?
Its MIC is 0.78 mg/L (≈ 1.93 µM).

And the MIC [35]?
Its MIC is 0.78 mg/L (≈ 1.93 µM).

What about the MIC [36] of the same compound?
The MIC was 0.39 mg/L (≈ 0.967 µM).

And the MIC [37]?
Its MIC is 0.2 mg/L (≈ 0.496 µM).

What about the MIC [38] of the same compound?
Its MIC is 0.2 mg/L (≈ 0.496 µM).

What about the MIC [39] of the same compound?
The MIC was 1.56 mg/L (≈ 3.87 µM).

What about the MIC [40] of the same compound?
Its MIC is 0.1 mg/L (≈ 0.248 µM).

And the MIC [41]?
Its MIC is 1.56 mg/L (≈ 3.87 µM).

And the MIC [42]?
Its MIC is at most 0.05 mg/L.

And the MIC [43]?
The MIC was at most 0.05 mg/L.

And the MIC [44]?
The MIC was 0.2 mg/L (≈ 0.496 µM).

And the MIC [45]?
Its MIC is at most 0.05 mg/L.

And the MIC [46]?
Its MIC is 0.39 mg/L (≈ 0.967 µM).

What about the MIC [47] of the same compound?
The MIC was 0.39 mg/L (≈ 0.967 µM).

Which results are given for `COc1c(N2CCC(N)C2)c(F)c(N)c2c(=O)c(C(=O)O)cn(C3CC3)c12` (stereo not drawn) [Exp. 11, 5-amino-7-(3-amino-1-pyrrolidinyl)-1-cyclopropyl-6-fluoro-1,4-dihydro-8-methoxy-4-oxo-3-quinolinecarboxylic acid]?
MIC [1]: 0.0125 mg/L (≈ 0.0332 µM); MIC [2]: 0.025 mg/L (≈ 0.0664 µM); MIC [3]: 0.05 mg/L (≈ 0.133 µM); MIC [4]: 0.025 mg/L (≈ 0.0664 µM); MIC [6]: 0.025 mg/L (≈ 0.0664 µM); MIC [7]: 0.2 mg/L; MIC [8]: 0.2 mg/L (≈ 0.531 µM); MIC [9]: 0.025 mg/L (≈ 0.0664 µM); MIC [10]: 0.2 mg/L; MIC [11]: 0.39 mg/L (≈ 1.04 µM); MIC [12]: 0.2 mg/L (≈ 0.531 µM); MIC [13]: 0.025 mg/L (≈ 0.0664 µM); MIC [14]: 0.025 mg/L (≈ 0.0664 µM); MIC [15]: 0.1 mg/L (≈ 0.266 µM); MIC [16]: 0.2 mg/L (≈ 0.531 µM); MIC [17]: 0.05 mg/L (≈ 0.133 µM); MIC [18]: 0.2 mg/L (≈ 0.531 µM); MIC [19]: 0.05 mg/L (≈ 0.133 µM); MIC ([20]; IID976): 0.05 mg/L (≈ 0.133 µM); MIC [21]: 0.2 mg/L (≈ 0.531 µM); MIC [22]: 0.1 mg/L (≈ 0.266 µM); MIC [23]: 0.78 mg/L (≈ 2.07 µM); MIC [24]: 1.56 mg/L (≈ 4.14 µM); MIC [25]: 1.56 mg/L (≈ 4.14 µM); MIC [26, 48]: 1.56 mg/L (≈ 4.14 µM); MIC [27]: 0.2 mg/L (≈ 0.531 µM); MIC [28]: 0.1 mg/L (≈ 0.266 µM); MIC [29]: 0.05 mg/L (≈ 0.133 µM); MIC [30]: 0.78 mg/L (≈ 2.07 µM); MIC ([31]; GM7000, 10^6 cells/ml, Gram -, read-out: MIC): 1.56 mg/L (≈ 4.14 µM); MIC [32, 48]: 1.56 mg/L (≈ 4.14 µM); MIC [33, 48]: 1.56 mg/L (≈ 4.14 µM); MIC [34, 48]: 12.5 mg/L (≈ 33.2 µM); MIC [35, 48]: 1.56 mg/L (≈ 4.14 µM); MIC [36]: 0.78 mg/L (≈ 2.07 µM); MIC [37]: 3.13 mg/L (≈ 8.32 µM); MIC [38, 48]: 1.56 mg/L (≈ 4.14 µM); MIC [39]: 25 mg/L (≈ 66.4 µM); MIC [40]: 0.39 mg/L (≈ 1.04 µM); MIC [41]: 6.25 mg/L (≈ 16.6 µM); MIC [42]: 0.78 mg/L (≈ 2.07 µM); MIC [43]: 0.78 mg/L (≈ 2.07 µM); MIC ([44]; 10^6 cells/ml, Gram +, read-out: MIC): 1.56 mg/L (≈ 4.14 µM); MIC [45]: 0.78 mg/L (≈ 2.07 µM); MIC [46]: 0.78 mg/L (≈ 2.07 µM); MIC [47]: 0.78 mg/L (≈ 2.07 µM)
